Source: patent US11026426B2, “Oxadiazole and phenol derivatives as antibacterial and/or herbicidal agents” (NORTHERN ILLINOIS RESEARCH FOUNDATION, priority 2017, dated 2021)
Like-named read-outs stand apart in the source and are kept apart here.

Assays:
[1] = biological target: Bt IspD (Burkholderia thailandensis, UniProt Q2SWT6); format: binding
Protocol: ITC studies were performed with a Microcal VP-ITC titration calorimeter (Malvern Instruments). Proteins were dialyzed overnight against four liters of buffer (20 mM sodium phosphate, 150 mM NaCl, pH 7.4). Compounds were dissolved in DMSO and brought to concentration with the dialysis buffer, with a maximum DMSO concentration of 10% by volume, and centrifuged at 10,000 RPM for 10 minutes. DMSO concentrations were matched between the protein and ligand. The dialysis buffer was used for all sample dilutions to ensure buffers matching between the titrant and titrate, thus minimizing the excess heat due to buffer mismatch. The Pace method was utilized for the determination of the extinction coefficients at 280 nm for Ec IspD (30,940 M^−1 cm^−1) and Bt IspD (41,940 M^−1 cm^−1). Cytidine triphosphate's extinction coefficient was 9,100 M^−1 cm^−1. The absorbance values of protein and CTP solutions were determined using the NanoDrop (in triplicate). All other compound concentrations were determined by dry weight. ITC experiments were performed with IspD in the cell and ligand in the syringe, which is at 100 times the concentration of the sample in the cell due to the low predicted affinities for IspD.
The initial injection volume was 2 μL (omitted) followed by 27 10 μL injections, every 240 seconds. Samples were run at 25° C., at pH 7.4, with a stirring speed of 307 RPM. Dilution runs were performed to allow determination of background heats caused by solution mismatch and instrument noise. Dilution runs were performed with ligand (at the same concentration as in the experiment run) in the syringe titrated into the dialysis buffer in the cell. Data were fit using OriginPro 7 with the ITC add-on by the manufacturer.
ITC studies were performed to observe the dissociation constant along with thermodynamic properties of the reactant CTP with Bt IspD.

[2] = biological target: T1, Mycobacterium tuberculosis IspD (MtIspD) (Mycobacterium tuberculosis, UniProt P9WKG9); test: Thermal shift assay against MtIspD; format: binding
T1 sequence (P9WKG9 1-231): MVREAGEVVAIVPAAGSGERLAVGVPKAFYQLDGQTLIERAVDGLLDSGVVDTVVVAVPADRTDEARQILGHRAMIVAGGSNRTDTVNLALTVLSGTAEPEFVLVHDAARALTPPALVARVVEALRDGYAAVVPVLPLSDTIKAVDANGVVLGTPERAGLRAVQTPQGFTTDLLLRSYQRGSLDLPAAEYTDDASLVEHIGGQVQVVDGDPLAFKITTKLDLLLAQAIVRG

[3] = biological target: Lycopersicon esculentum IspE (LeIspE) (Solanum lycopersicum, UniProt P93841); test: Thermal shift assay against LeIspE; format: binding
[4] = biological target: Mycobacterium paratuberculosis IspD (MpIspD) (Mycolicibacterium paratuberculosis, UniProt Q743W5); test: Thermal shift assay against MpIspD; format: binding; conditions: MpIspD
[5] = tested on: lettuce seeds; test: Lettuce leaf assay; format: in vivo; design: key: 0 (no effect); 5(complete inhibition or bleaching); conditions: ranking 0-5
Outline: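 Qualitative assay: compounds in volatile organic solvent applied to filter paper in a petri dish, solvent evaporated, lettuce seeds and 5 mL water added to give test concentrations. Germination, root development and leaf bleaching scored days 3 and 4, ranked 0 (no effect) to 5 (complete inhibition or bleaching).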

[6] = biological target: AtIspD (Arabidopsis thaliana, UniProt P69834); test: University of Hamburg photometric enzymatic inhibition assay AtIspD; format: biochemical; conditions: read-out: AtIspD IC50
Outline: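 Coupled photometric assay: 2.4 mU AtIspD with 1 mM (2R,3S)-2,3-dihydroxy-4-oxopentyl phosphate, 2.1 mM CTP, excess IspE (0.4 U), ATP, pyruvate kinase/lactate dehydrogenase and 460 μM NADH. Run in 100 mM Tris-HCl pH 8.0, 10 mM MgCl2, 1 mM DTT, 1.1% DMSO at 27 °C, monitored photometrically.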

[7] = biological target: LeIspE (Solanum lycopersicum, UniProt P93841); test: University of Hamburg photometric enzymatic inhibition assay LeIspE; format: biochemical, Lycopersicon esculentum; conditions: read-out: LeIspE IC50
Outline: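 Photometric coupled assay with pyruvate kinase/lactate dehydrogenase following NADH (460 μM). Mix: 100 mM Tris-HCl pH 8.0, 10 mM MgCl2, 1 mM DTT, 2.5 mM phosphoenolpyruvate, 2 mM ATP, 1 mM 4-diphosphocytidyl-2-C-methylerythritol, 1.1% DMSO, 2.4 mU IspE; incubated at 27° C.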

[8] = biological target: AtIspF (Arabidopsis thaliana, UniProt Q9CAK8); test: University of Hamburg photometric enzymatic inhibition assay AtIspF; format: biochemical; conditions: read-out: AtIspF IC50
Outline: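 Coupled photometric assay (CMP kinase/pyruvate kinase/lactate dehydrogenase, NADH consumption) with 2.4 mU AtIspF and 1 mM 4-diphosphocytidyl-2C-methylerythritol 2-phosphate, 2 mM ATP, in 100 mM Tris-HCl pH 8.0, 10 mM MgCl2, 1.1% DMSO. Monitored at 27 °C.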

[9] = tested on: Burkholderia thailandensis; format: cell-based; conditions: preliminary screening, score 0-3
[10] = tested on: Mycobacterium smegmatis; test: Antibacterial preliminary screening MS; format: cell-based; conditions: score 0-3; note: key: 0 represents no inhibition; 3 is comparable to commercial antibiotic control
[11] = tested on: Corynebacterium xerosis; test: Antibacterial preliminary screening CX; format: cell-based; conditions: score 0-3; note: key: 0 represents no inhibition; 3 is comparable to commercial antibiotic control
[12] = tested on: Corynebacterium pseudodiphtheriae; test: Antibacterial preliminary screening CP; format: cell-based; conditions: score 0-3;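 note: 0 is no inhibition and 3 matches the commercial antibiotic control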
[13] = tested on: Escherichia coli; test: Antibacterial preliminary screening EC; format: cell-based; conditions: score 0-3; note: key: 0 represents no inhibition; 3 is comparable to commercial antibiotic control
[14] = tested on: Klebsiella pneumonia; test: Antibacterial preliminary screening KP; format: cell-based; conditions: score 0-3; note: key: 0 represents no inhibition; 3 is comparable to commercial antibiotic control
[15] = tested on: Micrococcus luteus; test: Antibacterial preliminary screening ML; format: cell-based; conditions: score 0-3; note: key: 0 represents no inhibition; 3 is comparable to commercial antibiotic control
[16] = tested on: Bacillus cereus; test: Antibacterial preliminary screening BC; format: cell-based; conditions: score 0-3; note: key: 0 represents no inhibition; 3 is comparable to commercial antibiotic control
[17] = tested on: Pseudomonas aeruginosa; test: Antibacterial preliminary screening PA; format: cell-based; conditions: score 0-3; note: key: 0 represents no inhibition; 3 is comparable to commercial antibiotic control
[18] = biological target: E. coli IspD (Escherichia coli, UniProt Q46893); test: IspD assay (Washington University, EnzCheck phosphate) EcIspD; format: biochemical; conditions: up to 100 μM; bar graph at 12.5 and 100 μM
Protocol: Compounds were tested against IspD from Escherichia coli and Plasmodium falciparum. The assay measured activity through monitoring phosphate levels released by IspD enzyme over time using conditions published previously. The assay utilized the EnzCheck phosphate assay kit to quantify phosphate released by IspD. Reactions were done in a 96-well plate with each well containing a final volume of 50 μL. Concentrations of reagents were as follows: 100 mM NaCl, 25 mM Tris at pH 7.0, 7.5 mM MgCl2, 1 mM dithiothreitol, 1 U/mL purine nucleoside phosphorylase, and 0.1 U/mL yeast inorganic pyrophosphatase, 50 μM CTP, 500 μM MEP, 0.1% DMSO, and 0.2 mM 2-Amino-6-mercapto-7-methyl puring riboside. Reactions with EclspD used 2 nM EclspD and reactions with PfIspD used 50 nM PfIspD. Reactions involved pre-warming the enzyme and buffers to 37° C. with different inhibitor concentrations followed by the addition of the purified MEP substrate. Absorbance was measured at 360 nm over time and values were used to create regression analysis curves from three trials and values were converted to (μM MEP)(μM enzyme)^−1s^−1 using a standard phosphate curve. These values were then used to identify percent activity compared to enzyme activity without the inhibitor. Results are indicated.

[19] = biological target: P. falciparum IspD (Plasmodium falciparum, UniProt Q8I273); test: IspD assay (Washington University, EnzCheck phosphate) PfIspD; format: biochemical
[20] = biological target: T2, Ec IspD (Escherichia coli, UniProt Q46893); test: EnzChek enzymatic activity assay Ec IspD; format: biochemical
Protocol: The EnzChek® assay has a phosphate sensitivity of 2-150 μM. To ensure there is no interference caused by assay components, three standards were performed on each plate: buffer only, without CTP and without MEP.
Here, for the plate-based assay, IspD converts MEP to CDP-ME pyrophosphate, which in turn is converted to inorganic phosphate (Pi) with the enzyme inorganic pyrophosphatase. The EnzChek® Phosphate Assay kit follows the formation of the inorganic phosphate through a reaction with 2-amino-6-mercapto-7-methylpurine riboside (MESG) and the enzyme purine nucleoside phosphorylase (PNP). This reaction converts the MESG into ribose 1-phosphate and 2-amino-6-mercapto-7-methylpurine resulting in a spectrophotometric shift in a maximum absorbance from 330 nm to 360 nm. Reactions were performed in 50 μL final volumes in 96-well clear flat bottom plates, and were initiated by addition of 50 ng purified Ec IspD. Absorbance at 360 nm was measured every 31 seconds for 20 minutes on a Synergy 2 Multi-Mode plate reader (BioTek), preheated to 37° C. Final concentration of reagents was as follows: 1×EnzChek® reaction buffer (50 mM Tris pH 7.5, 1 mM magnesium chloride (MgCl2), 100 μM sodium azide (NaN3)), 0.2 mM MESG, 1 U/ml PNP, 1 U/mL inorganic Pyrophosphatase (NEB), 200 mM CMP (Sigma), and 50 μM MEP (Echelon).

[21] = biological target: T2, Ec IspD; test: Thermal shift (DSF) screening against Ec IspD; format: binding; conditions: MicroSource Spectrum screening
Protocol: The library based screening technique in conjunction with the thermal shift assay was implemented to evaluate compounds from Spectrum collection.
All DSF experiments were performed in 50 mM phosphate buffer at pH 7.4, 150 mM NaCl, 1×SYPRO orange, 2% DMSO and 200 to 1000 nM of the enzyme with a total volume of 25 μL. Final enzyme concentrations used were […] for Ec IspD and 0.5 μM for Bt IspD. Samples were measured on a Bio-Rad iQ5 Real-Time PCR (Bio-Rad Life Sciences) using a temperature range of 25 to 95° C. at a rate of 1° C. per minute with the fluorescence measured every 0.5° C. every 10 seconds with wavelengths of 530 and 570 nm used for excitation and emission, respectively. The melting temperature (Tm value) was determined from the first derivative of the graph of relative fluorescence units vs. temperature.

Sequence of Lycopersicon esculentum IspE (LeIspE) (P93841 89-401): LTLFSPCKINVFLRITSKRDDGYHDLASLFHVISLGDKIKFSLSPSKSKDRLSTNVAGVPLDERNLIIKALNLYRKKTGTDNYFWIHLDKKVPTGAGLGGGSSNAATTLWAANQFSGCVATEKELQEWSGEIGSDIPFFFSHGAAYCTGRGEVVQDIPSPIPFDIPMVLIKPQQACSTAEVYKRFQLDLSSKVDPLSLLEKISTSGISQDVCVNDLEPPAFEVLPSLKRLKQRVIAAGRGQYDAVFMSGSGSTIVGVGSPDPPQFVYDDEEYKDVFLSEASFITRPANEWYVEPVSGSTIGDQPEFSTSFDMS
Sequence of LeIspE (P93841 89-401): as above
Sequence of AtIspF (Q9CAK8 53-231): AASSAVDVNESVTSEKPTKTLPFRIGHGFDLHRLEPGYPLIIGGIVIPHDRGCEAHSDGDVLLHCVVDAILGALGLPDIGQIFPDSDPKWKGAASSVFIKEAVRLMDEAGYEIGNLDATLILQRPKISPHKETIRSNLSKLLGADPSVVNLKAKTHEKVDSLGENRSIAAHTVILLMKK
Sequence of AtIspD (P69834 62-302): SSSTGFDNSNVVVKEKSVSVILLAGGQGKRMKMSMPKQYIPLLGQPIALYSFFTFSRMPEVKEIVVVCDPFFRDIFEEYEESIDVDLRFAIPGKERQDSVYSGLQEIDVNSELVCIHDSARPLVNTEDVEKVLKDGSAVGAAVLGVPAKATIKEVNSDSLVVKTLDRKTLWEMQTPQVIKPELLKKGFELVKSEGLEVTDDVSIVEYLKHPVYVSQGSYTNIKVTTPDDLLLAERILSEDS
Sequence of Bt IspD (Q2SWT6 whole entry): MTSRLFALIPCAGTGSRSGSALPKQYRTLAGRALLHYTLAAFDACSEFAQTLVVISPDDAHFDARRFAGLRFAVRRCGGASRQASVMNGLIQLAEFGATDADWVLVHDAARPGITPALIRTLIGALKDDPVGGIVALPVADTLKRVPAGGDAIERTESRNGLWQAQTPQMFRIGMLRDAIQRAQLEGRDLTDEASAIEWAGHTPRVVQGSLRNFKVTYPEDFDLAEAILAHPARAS
T2 sequence (Q46893 whole entry): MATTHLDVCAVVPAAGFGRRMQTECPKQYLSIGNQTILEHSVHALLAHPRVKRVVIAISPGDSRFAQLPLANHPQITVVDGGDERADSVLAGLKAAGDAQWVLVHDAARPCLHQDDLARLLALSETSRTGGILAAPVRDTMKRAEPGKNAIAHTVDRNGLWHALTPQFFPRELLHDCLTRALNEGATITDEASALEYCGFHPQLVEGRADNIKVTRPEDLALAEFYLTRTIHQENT
Sequence of E. coli IspD (Q46893 whole entry): as above
Sequence of P. falciparum IspD (Q8I273 entry or part of it): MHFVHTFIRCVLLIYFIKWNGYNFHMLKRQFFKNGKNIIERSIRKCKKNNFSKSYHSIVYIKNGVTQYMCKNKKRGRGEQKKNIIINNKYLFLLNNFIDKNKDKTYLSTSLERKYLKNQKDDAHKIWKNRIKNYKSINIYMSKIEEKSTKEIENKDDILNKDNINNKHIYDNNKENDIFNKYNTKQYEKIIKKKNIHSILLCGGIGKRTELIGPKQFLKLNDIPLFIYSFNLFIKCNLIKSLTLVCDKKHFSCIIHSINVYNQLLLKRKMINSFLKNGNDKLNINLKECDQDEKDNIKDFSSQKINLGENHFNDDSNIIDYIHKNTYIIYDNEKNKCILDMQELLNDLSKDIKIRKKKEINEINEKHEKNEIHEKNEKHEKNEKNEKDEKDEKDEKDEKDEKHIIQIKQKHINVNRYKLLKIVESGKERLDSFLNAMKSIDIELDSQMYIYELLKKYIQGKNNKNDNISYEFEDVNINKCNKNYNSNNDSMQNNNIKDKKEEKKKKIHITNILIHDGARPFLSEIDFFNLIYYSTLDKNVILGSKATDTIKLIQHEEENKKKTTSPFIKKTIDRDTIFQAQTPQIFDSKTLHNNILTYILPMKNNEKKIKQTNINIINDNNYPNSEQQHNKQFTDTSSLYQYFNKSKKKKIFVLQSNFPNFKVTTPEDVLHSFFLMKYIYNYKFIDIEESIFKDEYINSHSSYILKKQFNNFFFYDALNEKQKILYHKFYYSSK
Sequence of Mycobacterium paratuberculosis IspD (MpIspD) (Q743W5 whole entry): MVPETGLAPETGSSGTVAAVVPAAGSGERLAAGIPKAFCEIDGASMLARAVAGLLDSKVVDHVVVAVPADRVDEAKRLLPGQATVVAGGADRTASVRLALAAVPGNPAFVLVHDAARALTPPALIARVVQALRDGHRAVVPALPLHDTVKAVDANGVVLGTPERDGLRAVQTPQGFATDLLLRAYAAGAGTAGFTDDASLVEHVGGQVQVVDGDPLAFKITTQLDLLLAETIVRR

| SMILES | MtIspD melting temp [2] | LeIspE melting point change [3] | LeIspE melting temp [3] | Bleaching ([5]; 0.5 mM) | Germination ([5]; 0.5 mM) | Root Dev. ([5]; 0.5 mM) | Bleaching ([5]; 1.0 mM) | IC50 [6] | IC50 [7] | IC50 [8] | BT score [9] | MS score [10] | CX score [11] | CP score [12] | EC score [13] | KP score [14] | ML score [15] | BC score [16] | PA score [17] | melting point | also measured |
| --- | --- | --- | --- | --- | --- | --- | --- | --- | --- | --- | --- | --- | --- | --- | --- | --- | --- | --- | --- | --- | --- |
| Nc1ccn([C@@H]2O[C@H](COP(=O)(O)OP(=O)(O)OP(=O)(O)O)[C@@H](O)[C@H]2O)c(=O)n1 [CTP, Cytidine triphosphate] | – | – | – | – | – | – | – | – | – | – | – | – | – | – | – | – | – | – | – | – | KD app (ITC, words) [1]: in the millimolar range; entropic contribution −TΔS (ITC) [1]: 5.6±1.838; ΔH° (ITC) ([1]; stoichiometry fixed at two CTPs per dimer): -6.991 ± 1.749 kcal/mol |
| FC(F)(F)c1nnc(-c2cc3ccccc3[nH]2)o1 [HGN-211, 2-(1H-indol-2-yl)-5-(trifluoromethyl)-1,3,4-oxadiazole] | 49.3 °C | −0.75 °C | 48.75 °C | 0 | 1 | 0 | 0 | > 1000 µM | > 1000 µM | > 1000 µM | 0 | 0 | 0 | 0 | 0 | 0 | 0 | 0 | 0 | 182 to 184 °C | MtIspD melting point change [2]: 1.3 °C; increase in melting point over HGN-207 [4]: 0.3 °C; Germination ([5]; 1.0 mM): 2; Root Dev. ([5]; 1.0 mM): 0 |
| Clc1ccc(-c2nnc(-c3cc4ccccc4[nH]3)o2)cc1 [HGN-213, 2-(4-chlorophenyl)-5-(1H-indol-2-yl)-1,3,4-oxadiazole] | 48.8 °C | −2.00 °C | 47.50 °C | – | – | – | – | 490 µM | 326 ± 29 µM | > 1000 µM | 0 | 0 | 0 | 0 | 0 | 0 | 0 | 0 | 0 | 265 to 270 °C | MtIspD melting point change [2]: 0.8 °C; Bleaching ([5]; 0.2 mM): 0; Germination ([5]; 0.2 mM): 1; Root Dev. ([5]; 0.2 mM): 0; inhibition of E. coli IspD activity [18]: some activity; IC50 [19]: ~100 µM |
| FC(F)(F)c1ccc(-c2nnc(-c3cc4ccccc4[nH]3)o2)cc1 [HGN-214, 2-(1H-indol-2-yl)-5-(4-(trifluoromethyl)phenyl)-1,3,4-oxadiazole] | 49.8 °C | −1.00 °C | 48.50 °C | 0 | 1 | 0 | 0 | > 1000 µM | 269 ± 23 µM | > 1000 µM | 0 | 0 | 0 | 0 | 0 | 0 | 0 | 0 | 0 | 258 to 260 °C | Bleaching ([5]; 0.2 mM): 0; Germination ([5]; 0.2 mM): 0; Root Dev. ([5]; 0.2 mM): 0; Germination ([5]; 1.0 mM): 3; Root Dev. ([5]; 1.0 mM): 0; inhibition of E. coli IspD activity [18]: some activity; IC50 [19]: ~100 µM |
| c1ccc2[nH]c(-c3nnc(C4CCCC4)o3)cc2c1 [HGN-252, 2-cyclopentyl-5-(1H-indol-2-yl)-1,3,4-oxadiazole] | 49.5 °C | −2.50 °C | 47.00 °C | 0 | 1 | 0 | 0 | > 1000 µM | > 1000 µM | > 1000 µM | 0 | 0 | 0 | 0 | 0 | 0 | 0 | 0 | 0 | 150 to 154 °C | Germination ([5]; 1.0 mM): 2; Root Dev. ([5]; 1.0 mM): 0; inhibition of E. coli IspD activity [18]: significant activity |
| O=C(/C=C/c1ccc(O)cc1)c1ccc(O)cc1O [isoliquiritigenin] | – | – | – | – | – | – | – | – | – | – | – | – | – | – | – | – | – | – | – | – | IC50 [20]: 279 ± 12 µM |
| C[CH2][Hg][S]c1ccccc1C(=O)[O-].[Na+] [thimerosal, reference compound] | – | – | – | – | – | – | – | – | – | – | – | – | – | – | – | – | – | – | – | – | change in the observed melting temperature of Ec IspD [21]: +3.53 °C; IC50 ([20]; EnzChek assay, read-out: Ec IspD IC50): 381 ± 12 µM |
